In brackets after ≈: the same amount, converted by molar mass. Activity calls are given as the source filed them. The rule behind the calls is not given here.
Tests used:
Format in all cases: functional
[1] = Antioxidant activity assessed as superoxide radical anion scavenging activity at 0.5 mg/ml by hypoxanthine NBT method
[2] = Antioxidant activity assessed as superoxide radical anion scavenging activity by hypoxanthine NBT method
[3] = Antioxidant activity assessed as superoxide radical anion scavenging activity at 0.2 mg/ml by hypoxanthine NBT method

SMILES	Activity [1] [%]	IC50 [2] [µg/mL]	Activity [3]
C[C@@H]1O[C@@H](Oc2cc(O)c3c(=O)c(O[C@@H]4O[C@@H](C)[C@H](O)[C@@H](O)[C@H]4O)c(-c4ccc(O)cc4)oc3c2)[C@H](O)[C@H](O)[C@H]1O	17.6	–	–
COc1cc2c(cc1[C@@H]1CC(=O)c3c(O)c(C)c4c(c3O1)C=CC(C)(C)O4)C=CC(C)(C)O2	95.8	140 (≈ 312 µM)	Active
O=c1c(O[C@@H]2O[C@H](CO)[C@@H](O)[C@H](O)[C@H]2O)c(-c2ccc(O)cc2)oc2cc(O)cc(O)c12	51.7	–	–
C[C@@H]1O[C@@H](Oc2c(-c3ccc(O)cc3)oc3cc(O)cc(O)c3c2=O)[C@H](O)[C@H](O)[C@H]1O	29.9	–	–
O=c1c(O)c(-c2ccc(O)c(O)c2)oc2cc(O[C@@H]3O[C@H](CO)[C@@H](O)[C@H](O)[C@H]3O)cc(O)c12	71.7	–	–
C[C@@H]1O[C@@H](Oc2c(-c3ccc(O)c(O)c3)oc3cc(O)cc(O)c3c2=O)[C@H](O)[C@H](O)[C@H]1O	88.9	–	–

From ChEMBL document CHEMBL1140528, “A novel flavonoid from Lespedeza virgata (Thunb.) DC.: structural elucidation and antioxidative activity” (Bioorg Med Chem Lett, 2007)
